{"source": "patent US20030005484A1", "about": "“Microbiocidal and pesticidal aromatic aldehydes” (ProGuard, Inc., priority 1994, published 2003)", "key": {"rust": {"tested_on": "rust", "assay": "rust (and spores) on roses, disease rating / MPDC after foliar spray", "format": "in vivo, Phragmidrium mucronatrum", "experimental": "Each formulation is evaluated for its effect on specific pests and/or plant host using any of the compounds of formula (1) as well as other components of the formulation such as Tween 80 and/or sodium bicarbonate, with the combination and effective amount of each component adapted for a particular application to minimize toxicity while maintaining or increasing the antipathogenic effect of the formulation. The effective amount of each component may be determined by systematically varying the amount of that component in a test formulation, treating a plant of interest with the test formulation, and monitoring the level of pest infestation compared to an untreated control plant. An effective amount of a test component is identified as the amount that controls the growth of the pathogen on the plant host, thus reducing the disease rating of the plant. The mean percentage disease […] (MPDC) can be calculated for each particular application. MPDC is defined by the formula: [formula] Eight cultivars of rose were tested to investigate the effect of a cinnamic aldehyde/NaHCO3 formulation on rust and spores. The cultivars used included Moss unnamed (Moss), […], Rosette Delize (Hybrid Tea), Rosa Rugosa Rubra (Rugosa), Abel Morrison (Hybrid perpetual), John Laing, Betty Prior, and Rose de Roi. […] The Hybrid Tea and Hybrid perpetual were rated 3 and the Rugosa was rated 1. […] Control plants received no treatment. […] Moreover, the treatment appeared to have induced systemic resistance. […] Plants were an average of 0.86 m apart. […] Controls were untreated plants. […] Weekly reviews were made of the various plants. […] Six cultivars of infected rose in dedicated experimental rose gardens were used. Four Mrs. John Laing (Hybrid perpetual) and two Marchionese of Londonderry (Hybrid perpetual) rose plants were treated with one of two formulations of coniferyl aldehyde. […] The first two Mrs. […] Mrs. […] Both Marchionese of Londonderry plants (P5 and P6) were rated 5 for powdery mildew and rust after Paulus and Nelson (supra). Two treatment formulae were used for this trial. […] Control plants were sprayed with water alone. The change in the rating from pre-treatment to post-treatment was calculated as the mean percentage of disease control (MPDC) as described herein."}, "aphids": {"tested_on": "aphids", "assay": "aphids on sprayed roses", "format": "in vivo", "conditions": "roses sprayed with emulsion of cinnamic aldehyde and sodium bicarbonate, concomitantly saponin"}, "powdery mildew": {"tested_on": "powdery mildew", "assay": "powdery mildew on Cabernet Sauvignon grapes", "format": "in vivo", "conditions": "for % CLUSTERS INFECTED-FIRST DAY / MEAN # OF BERRIES/CLUSTER INFECTED FIRST DAY: 2 days post treatment; for % CLUSTERS INFECTED-SECOND DAY / MEAN # OF BERRIES/CLUSTER INFECTED SECOND DAY: 10 days post-treatment", "experimental": "The effect of 0.3% and 0.6% cinnamic aldehyde on powdery mildew on grapes was examined. A 3 acre block of Cabernet Sauvignon that was severely infested with powdery mildew (primarily on grape berries) was sprayed with either 0.3% or 0.6% cinnamic aldehyde using a 300 gal. Pul-Blast sprayer at 160 psi fitted with 10, D4 nozels using a #56 core. Approximately 1.25 acres were treated for each cinnamic aldehyde concentration. A 0.5 acre plot of control grape vines were sprayed with a tank mix at label rates of other commercially available pesticides (Abound, Provado, Kelthan, Silwet L-77 and a foliar nutrient spray( 10-12-0+2% zinc)) costing approximately $87.00/acre. For the two cinnamic aldehyde treatments and control plots, 2 rows per treatment were visually inspected for severe powdery mildew infections and marked with flagging tape. At least 10 locations were marked in each row inspected and defined sampling positions for determining efficacy of the treatments. Water sensitive cards were placed at the level of the cordon wire (where grape clusters are located) and were used to monitor spray coverage. Two and ten days subsequent to treatment, samples from two sides of each vine (to include variable powdery mildew incidence due to sun exposure) were examined for powdery mildew. […] 0.3% cinnamic aldehyde reduced powdery mildew infection of grapes to a level similar to the positive control while 0.6% cinnamic aldehyde reduced powdery mildew infection even more than the standard. Upon examination of the mean number of berries infected with powdery mildew, again, it was evident that both 0.3% and 0.6% cinnamic aldehyde reduced the extent of powdery mildew infection to levels that were to similar or less than the positive control respectively."}, "[1]": {"tested_on": "melon aphid (Aphis gossypii Glover)", "assay": "melon aphid plant foliar bioassay on chrysanthemum", "format": "in vivo", "conditions": "for Mean Number of Aphid Nymphs Per Leaf: sprayed to runoff, after 36 hours, pre-count 60", "experimental": "Treatment of melon aphid (Aphis gossypii Glover) was conducted as follows. Chrysantemums (C. morifolum) were used for melon aphid plant foliar bioassays. Plants were grown in […] pots in planting soil in greenhouse. Flowering plants were infested and pre-count population size for each plant were taken and number of mean of aphids nymphs per leaf calculated. The plants were sprayed to runoff (about 5 ml) with an aqueous formulation containing 1,000 ppm, 3,000 ppm, and 10,000 ppm concentration of cinnamic aldehyde, and a negative control containing only H2O. After 36 hours, the number of insects on the leaves sprayed with a given test formulation was determined and compared with that of insects on leaves sprayed with negative control only. Mean number of aphid nymphs per leaf were determined to be less than 10 for each cinnamic aldehyde concentration as compared to a pre-count mean of about 60."}, "leafhoppers": {"tested_on": "leafhoppers", "assay": "leafhoppers on cabernet sauvignon grapevines, 0.3% spray", "format": "in vivo", "conditions": "0.3% CNMA; two days after spraying; untreated 2.46", "experimental": "The effect of 0.3% cinnamic aldehyde on leafhoppers and spider mites on grapevine leaves was examined. 30% cinnamic aldehyde was diluted 1:100 in water and sprayed one time on a 1 acre block of cabernet sauvignon grapevines in a vineyard using a 300 gal Pul-Blast rsprayer at 160 psi. 120 gal. were applied to one acre of vineyard. As a control, a one-acre block remained untreated. Blocks were pseudo-replicated so as to obtain an indication of the reliability of the treatment. Prior to treatment mites on leaves were pre-counted using a dissecting microscope. Leafhopper numbers also were determined in the field prior to treatment. Two days after spraying, two leaves, one from the basal portion and one from the proximal portion of the vine were examined from 16 vines from 2 rows for each treatment. Leaf samples also were taken from both sides of the vines (north and south) to include variation due to vine exposure. […]"}, "Root Knot Nematode": {"tested_on": "Root Knot Nematode", "assay": "vineyard grape vines, nematode infestation: root knot", "format": "in vivo", "experimental": "The subject formulations were tested for ability to reduce grape vine infestation by root knot, ring, stubby root, and roll lesion nematodes. Grape vines (Harmony rootstock) in a vinyard were treated with 1000 ppm or 3000 ppm cinnamaldehyde in 2% Tween 80, the commercial anti-nematode agent Nemacur, or a formulation blank. The extent of nematode infestation was determined at the time of treatment and at 30 and 60 days post-treatment."}, "[2]": {"conditions": "potted roses, ~100 ml foliar spray of 5 g cinnamic aldehyde, 80 g NaHCO3, 10 g Tween 80 per 1000 g, weekly saponin, observed 8 weeks"}, "[3]": {"conditions": "1000 ppm in 2% Tween 80, 30 days post-treatment"}, "[4]": {"conditions": "1000 ppm in 2% Tween 80, 60 days post-treatment"}, "[5]": {"conditions": "1000 ppm in 2% Tween 80, day 0 (time of treatment)"}, "[6]": {"conditions": "3000 ppm in 2% Tween 80, 30 days post-treatment"}, "[7]": {"conditions": "3000 ppm in 2% Tween 80, day 0 (time of treatment)"}}, "data": [{"smiles": "O=C/C=C/c1ccccc1", "note": "[cinnamic aldehyde]", "values": [{"measurement": "Mean Percentage of Disease Control (MPDC), rust", "setting": "rust; field rose Rose de Roi, same single spray, five week trial", "result": 85.0, "unit": "%"}, {"measurement": "rust after a single treatment", "setting": "rust; [2]", "result": "eradicative"}, {"measurement": "spores after a single treatment", "setting": "rust; [2]", "result": "eradicative"}, {"measurement": "aphids on treated plants", "setting": "aphids", "result": "remained free of aphids"}, {"measurement": "% CLUSTERS INFECTED-FIRST DAY", "setting": "powdery mildew; 0.3% CNMA", "result": 60, "unit": "%"}, {"measurement": "MEAN # OF BERRIES/CLUSTER INFECTED FIRST DAY", "setting": "powdery mildew; 0.3% CNMA", "result": 3.1}, {"measurement": "% CLUSTERS INFECTED-SECOND DAY", "setting": "powdery mildew; 0.3% CNMA", "result": 0.22, "unit": "%"}, {"measurement": "MEAN # OF BERRIES/CLUSTER INFECTED SECOND DAY", "setting": "powdery mildew; 0.3% CNMA", "result": 0.72}, {"measurement": "% CLUSTERS INFECTED-FIRST DAY", "setting": "powdery mildew; 0.6% CNMA", "result": 25, "unit": "%"}, {"measurement": "MEAN # OF BERRIES/CLUSTER INFECTED FIRST DAY", "setting": "powdery mildew; 0.6% CNMA", "result": 0.5}, {"measurement": "% CLUSTERS INFECTED-SECOND DAY", "setting": "powdery mildew; 0.6% CNMA", "result": 0.2, "unit": "%"}, {"measurement": "MEAN # OF BERRIES/CLUSTER INFECTED SECOND DAY", "setting": "powdery mildew; 0.6% CNMA", "result": 0.25}, {"measurement": "time control of powdery mildew was maintained", "setting": "powdery mildew; both treatments, 0.3% and 0.6%", "result": "at least three weeks"}, {"measurement": "Mean Number of Aphid Nymphs Per Leaf", "setting": "[1]; CNMA 1,000 ppm in H2O", "result": "6 ± 3"}, {"measurement": "Mean Number of Aphid Nymphs Per Leaf", "setting": "[1]; CNMA 3,000 ppm in H2O", "result": "4 ± 3"}, {"measurement": "Mean Number of Aphid Nymphs Per Leaf", "setting": "[1]; CNMA 10,000 ppm in H2O", "result": "1 ± 1"}, {"measurement": "Mean number of aphid nymphs per leaf", "setting": "[1]; each concentration (1,000, 3,000, 10,000 ppm), pre-count mean of about 60", "result": "less than 10"}, {"measurement": "LEAFHOPPERS/LEAF", "setting": "leafhoppers", "result": 0.16}, {"measurement": "Root Knot Nematode, nematodes per 250 cc soil", "setting": "Root Knot Nematode; [3]", "result": 872, "unit": "per 250 cc soil"}, {"measurement": "Root Knot, nematodes per gram root", "setting": "Root Knot Nematode; [3]", "result": 55.2, "unit": "per gram root"}, {"measurement": "Root Knot Nematode, nematodes per 250 cc soil", "setting": "Root Knot Nematode; [4]", "result": 204.5, "unit": "per 250 cc soil"}, {"measurement": "Root Knot, nematodes per gram root", "setting": "Root Knot Nematode; [4]", "result": 11.8, "unit": "per gram root"}, {"measurement": "Root Knot Nematode, nematodes per 250 cc soil", "setting": "Root Knot Nematode; [5]", "result": 498.8, "unit": "per 250 cc soil"}, {"measurement": "Root Knot, nematodes per gram root", "setting": "Root Knot Nematode; [5]", "result": 301.3, "unit": "per gram root"}, {"measurement": "Root Knot Nematode, nematodes per 250 cc soil", "setting": "Root Knot Nematode; [6]", "result": 700, "unit": "per 250 cc soil"}, {"measurement": "Root Knot, nematodes per gram root", "setting": "Root Knot Nematode; [6]", "result": 125.6, "unit": "per gram root"}, {"measurement": "Root Knot Nematode, nematodes per 250 cc soil", "setting": "Root Knot Nematode; 3000 ppm in 2% Tween 80, 60 days post-treatment", "result": 269.8, "unit": "per 250 cc soil"}, {"measurement": "Root Knot Nematode, nematodes per 250 cc soil", "setting": "Root Knot Nematode; [7]", "result": 379.8, "unit": "per 250 cc soil"}, {"measurement": "Root Knot, nematodes per gram root", "setting": "Root Knot Nematode; [7]", "result": 24.4, "unit": "per gram root"}]}]}
